Calls of active or inactive are those of the source. The calls are words filed in the database; no cut-off is given here.
Assays:
[1] = target: Epidermal growth factor receptor (Homo sapiens) (UniProt P00533); experiment: Induction of EGFR degradation in human MDA-MB-231 cells assessed as suppression of EGFR expression at 0.05 to 0.6 uM by Western blot analysis; format: cell-based
[2] = target: Hepatocyte growth factor receptor (Homo sapiens) (UniProt P08581); experiment: Induction of c-MET degradation in human MDA-MB-231 cells assessed as suppression of c-MET expression at 0.05 to 0.6 uM by Western blot analysis; format: cell-based
Sequence of Hepatocyte growth factor receptor (Homo sapiens) (P08581 whole entry): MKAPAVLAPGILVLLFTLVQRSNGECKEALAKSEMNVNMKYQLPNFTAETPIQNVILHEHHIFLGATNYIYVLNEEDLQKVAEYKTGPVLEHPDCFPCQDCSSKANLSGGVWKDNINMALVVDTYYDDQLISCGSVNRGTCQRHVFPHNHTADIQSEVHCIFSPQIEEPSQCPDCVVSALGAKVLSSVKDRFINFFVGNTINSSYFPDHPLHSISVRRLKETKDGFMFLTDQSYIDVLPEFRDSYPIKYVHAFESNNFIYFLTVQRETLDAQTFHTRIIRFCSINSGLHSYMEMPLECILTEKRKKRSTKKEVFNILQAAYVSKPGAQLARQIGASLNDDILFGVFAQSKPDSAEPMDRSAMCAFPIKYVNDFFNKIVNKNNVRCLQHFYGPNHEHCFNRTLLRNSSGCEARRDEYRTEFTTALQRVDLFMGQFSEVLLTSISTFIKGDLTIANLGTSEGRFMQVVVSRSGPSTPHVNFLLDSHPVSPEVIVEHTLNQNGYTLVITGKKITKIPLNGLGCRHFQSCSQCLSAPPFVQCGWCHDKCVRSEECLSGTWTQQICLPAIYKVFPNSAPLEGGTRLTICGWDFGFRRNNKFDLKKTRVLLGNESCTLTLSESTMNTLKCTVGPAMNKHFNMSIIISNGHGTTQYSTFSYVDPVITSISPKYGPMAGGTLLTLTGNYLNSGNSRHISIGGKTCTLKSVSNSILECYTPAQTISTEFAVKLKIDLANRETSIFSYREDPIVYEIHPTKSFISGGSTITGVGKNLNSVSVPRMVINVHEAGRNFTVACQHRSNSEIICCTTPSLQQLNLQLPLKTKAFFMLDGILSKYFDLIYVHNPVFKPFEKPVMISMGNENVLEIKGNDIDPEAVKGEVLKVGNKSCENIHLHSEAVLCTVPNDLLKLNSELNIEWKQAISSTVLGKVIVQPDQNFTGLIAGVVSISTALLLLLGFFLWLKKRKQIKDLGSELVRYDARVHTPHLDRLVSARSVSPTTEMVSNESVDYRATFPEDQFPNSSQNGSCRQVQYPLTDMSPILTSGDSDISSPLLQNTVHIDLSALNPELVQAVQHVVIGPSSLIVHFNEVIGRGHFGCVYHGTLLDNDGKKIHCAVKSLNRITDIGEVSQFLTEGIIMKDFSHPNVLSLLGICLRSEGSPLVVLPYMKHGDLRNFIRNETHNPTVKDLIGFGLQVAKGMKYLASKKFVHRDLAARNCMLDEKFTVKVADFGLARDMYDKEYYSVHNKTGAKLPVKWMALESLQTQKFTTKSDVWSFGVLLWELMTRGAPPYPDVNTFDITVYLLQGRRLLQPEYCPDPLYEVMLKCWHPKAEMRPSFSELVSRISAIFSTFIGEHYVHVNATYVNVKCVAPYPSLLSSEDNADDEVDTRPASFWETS

Sequence of Epidermal growth factor receptor (Homo sapiens) (P00533 whole entry): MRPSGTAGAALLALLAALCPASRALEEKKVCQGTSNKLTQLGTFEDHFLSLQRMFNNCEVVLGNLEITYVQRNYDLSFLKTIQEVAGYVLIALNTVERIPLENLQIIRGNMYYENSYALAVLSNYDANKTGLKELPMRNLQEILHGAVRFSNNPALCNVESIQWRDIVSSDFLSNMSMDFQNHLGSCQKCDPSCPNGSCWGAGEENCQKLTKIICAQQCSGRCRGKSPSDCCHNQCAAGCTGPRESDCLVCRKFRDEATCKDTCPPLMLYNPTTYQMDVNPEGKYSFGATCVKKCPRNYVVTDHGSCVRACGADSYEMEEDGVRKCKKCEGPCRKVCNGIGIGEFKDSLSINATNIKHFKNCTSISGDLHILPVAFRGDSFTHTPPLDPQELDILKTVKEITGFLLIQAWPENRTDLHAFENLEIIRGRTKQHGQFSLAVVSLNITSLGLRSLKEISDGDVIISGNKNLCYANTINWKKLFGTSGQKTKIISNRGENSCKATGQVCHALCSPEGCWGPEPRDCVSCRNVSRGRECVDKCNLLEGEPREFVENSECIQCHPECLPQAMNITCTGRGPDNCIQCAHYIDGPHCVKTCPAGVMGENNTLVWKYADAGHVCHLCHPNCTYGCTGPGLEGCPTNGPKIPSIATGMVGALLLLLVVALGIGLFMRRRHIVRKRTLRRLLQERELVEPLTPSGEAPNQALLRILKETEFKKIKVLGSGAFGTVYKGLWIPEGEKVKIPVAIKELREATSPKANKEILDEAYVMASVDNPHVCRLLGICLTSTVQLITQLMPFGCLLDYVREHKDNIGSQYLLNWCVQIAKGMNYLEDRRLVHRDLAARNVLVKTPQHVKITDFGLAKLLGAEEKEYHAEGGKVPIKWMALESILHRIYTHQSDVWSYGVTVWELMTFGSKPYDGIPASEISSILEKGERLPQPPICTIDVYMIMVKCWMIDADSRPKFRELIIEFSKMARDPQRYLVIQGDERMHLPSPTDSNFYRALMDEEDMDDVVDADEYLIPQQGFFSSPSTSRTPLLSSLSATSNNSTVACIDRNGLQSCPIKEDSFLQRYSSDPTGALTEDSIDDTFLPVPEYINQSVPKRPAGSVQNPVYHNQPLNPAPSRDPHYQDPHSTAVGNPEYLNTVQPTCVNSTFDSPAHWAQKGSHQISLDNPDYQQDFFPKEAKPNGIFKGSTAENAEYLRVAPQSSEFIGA

- Activity [1]: Active
- Activity [2]: Active
Compound: O=C(Nc1cccc(-c2nc(-c3ccc(NC(=O)c4cccnc4)cc3Cl)no2)c1)Nc1ccc(NC(=O)C2CC2)c(C(F)(F)F)c1

— ChEMBL document CHEMBL4342507, “Targeting YAP Degradation by a Novel 1,2,4-Oxadiazole Derivative via Restoration of the Function of the Hippo Pathway” (ACS Med Chem Lett, 2020)
